One compound from patent US20250059187A1, “COVALENTLY BINDING INHIBITORS OF G12S, G12D AND/OR G12E MUTANTS OF K-RAS GTPASE” (The Regents of the University of California, priority 2021, published 2025) can be followed below.

Data set [1] deals with non-G12D mutation cell lines. The data set is described as follows: In-cell covalent labeling by Western blot, non-G12D cell lines. In kind it is cell-based. As to the method: (§1) Cells were passed for at least two generations after cryorecovery before they were used for assays. All cell lines were tested mycoplasma negative using MycoAlert™ Mycoplasma Detection Kit (Lonza). When indicated, cells were treated with drugs at 40-60% confluency at a final DMSO concentration of 1%. At the end of treatment period, cells were placed on ice. Unless otherwise indicated, adherent cells were washed once with ice-cold PBS (1 mL), scraped with a spatula, and pelleted by centrifugation (500×g, 5 min). Suspension cells were pelleted by centrifugation (500×g, 5 min), washed with 1 mL ice-cold PBS, and pelleted again. Cells were lysed in RIPA buffer supplemented with protease and phosphatase inhibitors (cOmplete and phosSTOP, Roche) on ice for 10 min. For RBD pulldown experiments, cells were lysed in Co-IP Lysis Buffer in lieu of RIPA buffer. Lysates were clarified by high-speed centrifugation (19,000×g, 10 min). Concentrations of lysates were determined with protein BCA assay (Thermo Fisher) and adjusted to 2 mg/mL with additional RIPA buffer (or Co-IP Lysis Buffer). […]
(§2) Unless otherwise noted, SDS-PAGE was run with Novex 12% Bis-Tris gel (Invitrogen) in MES running buffer (Invitrogen) at 200 V for 60 min following the manufacturer's instructions. […] The membrane was washed three times with TBST (5 min each wash) and imaged on a Li-COR Odyssey fluorescence imager.
Background: A western blot detects proteins with antibodies after separation by electrophoresis.

The target of data set [2] is T1, K-Ras G12D (Homo sapiens, UniProt P01116, G12D).
T1 construct: human K-Ras (G12D, aa 1-169); 6xHis tag + TEV cleavage site (N, cleaved yes); made in house; host or cells: E. coli BL21(DE3)
The data set is described as follows: Covalent modification of test protein after incubation with compound. It counts as binding. Particulars: 24-h incubation with 100 μM compound at 23° C. at pH 7.5.

Data set [3] has as its system Ba/F3 KRAS G12D cells + interleukin-3. The data set is described as follows: Growth inhibition of Ba/F3 KRAS G12D cells co-treated with IL-3. It counts as cell-based, murine. Particulars: IL-3, 10 ng/mL. The procedure:
(§3) Cells were seeded into 96-well white flat bottom plates (1,000 cells/well) (Corning) and incubated overnight. Cells were treated with the indicated compounds in a nine-point threefold dilution series (100 μL final volume) and incubated for 72 h. Cell viability was assessed using a commercial CellTiter-Glo (CTG) luminescence-based assay (Promega). Briefly, the 96-well plates were equilibrated to room temperature before the addition of diluted CTG reagent […] (1:4 CTG reagent:PBS). Plates were placed on an orbital shaker for 30 min before recording luminescence using a Spark 20M (Tecan) plate reader.

The test system of data set [4] is non-G12D mutation cancer cell lines (H1299, HCT116, A549, A375). Description: Growth inhibition of non-G12D mutation cancer cell lines. In kind it is cell-based. The procedure:
as §3

Data set [5] relates to KRAS G12D mutation cancer cell lines. Description: Growth inhibition of KRAS G12D cancer cell lines. It counts as cell-based. As to the method: as §3
In data set [6] the target is T1, K-Ras G12D. Description: Covalent modification of recombinant K-Ras(G12D) by whole-protein mass spectrometry. In kind it is binding. The procedure:
(§4) Test compounds were prepared as 100× stock solutions in DMSO. K-Ras proteins were diluted with SEC Buffer (20 mM HEPES 7.5, 150 mM NaCl, 1 mM MgCl2) to 400 nM or 1 μM. In a typical reaction, 0.5 μL 100× compound stock was mixed with 50 μL diluted K-Ras protein, and the resulting mixture was incubated for the desired amount of time. The extent of modification was assessed by electrospray mass spectrometry using a Waters Xevo G2-XS system equipped with an Acquity UPLC BEH C4 1.7 μm column. The mobile phase was a linear gradient of 5-95% acetonitrile/water+0.05% formic acid. For kinetic measurements, a 2× compound solution was first prepared in SEC Buffer, which was then mixed with 400 nM K-Ras(G12D) protein at 1:1 (v/v) ratio. Injection time stamps were used to calculate elapsed time.

A further data set has as its target T2, wild type K-Ras (Homo sapiens, UniProt P01116).
T2 construct: human K-Ras (wildtype, aa 1-169); 6xHis tag + TEV cleavage site (N, cleaved yes); made in house; host or cells: E. coli BL21(DE3)
Description: Covalent modification of test protein after incubation with compound. In kind it is binding. To be noted: 24-h incubation with 100 μM compound at 23° C. at pH 7.5.

A further data set has as its target T3, K-Ras(G13D) (Homo sapiens, UniProt P01116, G13D).
T3 construct: human K-Ras (G13D, aa 1-169); 6xHis tag + TEV cleavage site (N, cleaved yes); made in house; host or cells: E. coli BL21(DE3)
The data set is described as follows: Covalent modification of recombinant K-Ras(G13D) by whole-protein mass spectrometry. It counts as binding. To be noted: GDP and GppNHp state. The procedure: as §4

Data set [7] relates to AGS cell line (heterozygous KRAS^G12D/WT). Description: In-cell covalent labeling by Western blot, AGS. It counts as cell-based. The procedure:
as §1, §2

For data set [8], the system named is SW1990 (homozygous KRAS^G12D/G12D). Description: In-cell covalent labeling and signaling by Western blot, SW1990. It counts as cell-based. The procedure:
as §1, §2

For the next data set, the system named is BaF3/K-Ras(G12D) cells. Description: Growth inhibition of BaF3/K-Ras(G12D) cells. In kind it is cell-based, murine. To be noted: Mus musculus, read-out: IC50, growth of BaF3/K-Ras(G12D) cells. As to the method:
as §3

The test system of data set [9] is AsPC-1 (homozygous KRAS^G12D/G12D). Description: In-cell covalent labeling by Western blot, AsPC-1. It counts as cell-based. As to the method: as §1, §2
In data set [10] the target is T4, K-Ras G12E (Homo sapiens, UniProt P01116, G12E).
T4 construct: human K-Ras (G12E, aa 1-169); 6xHis tag + TEV cleavage site (N, cleaved yes); made in house; host or cells: E. coli BL21(DE3)
Description: Covalent modification of recombinant K-Ras(G12E) by whole-protein mass spectrometry. In kind it is binding. Particulars: GDP and GppNHp state. The procedure:
as §4

In data set [11] the target is T4, K-Ras G12E. Description: Covalent modification of test protein after incubation with compound. It counts as binding. To be noted: 24-h incubation with 100 μM compound at 23° C. at pH 7.5.

Where only a bound is given, the exact number is not on record here.

On to `C#Cc1c(F)ccc2cc(O)cc(-c3ncc4c(N5C[C@H]6CC[C@@H](C5)N6C(=O)[C@@H]5OC(=O)C5(C)C)nc(OC[C@@]56CCCN5C[C@H](F)C6)nc4c3F)c12` [(R)-7], for which the “in-cell labeling of K-Ras” value in data set [1] is reported as “none in non-G12D mutation cell lines”. In addition, the “% covalent modification of K-Ras G12D” value on K-Ras G12D [2] came to 100%. For the same compound, in [3], the “sensitivity of cells co-treated with interleukin-3” value is on record as “lost sensitivity to (R)-7 up to 10 μM”. In addition, in data set [4], the “toxicity to non-G12D mutation cancer cell lines” value is “minimal toxicity to the latter cell lines up to 10 μM concentration”. The “growth of KRAS G12D cancer cell lines” value in data set [5] is recorded as “selectively inhibited growth of cancer cells lines harboring K-Ras(G12D) mutation”. On K-Ras G12D [6], the “time to complete labeling of K-Ras(G12D)·GDP” value is on record as ≤ 30 min. Moreover, the “time to complete labeling of K-Ras(G12D)·GppNHp” value on K-Ras G12D [6] is ≤ 300 min. At K-Ras G12D [6] (read-out: kinact/KI against K-Ras(G12D)·GDP), the kinact/KI came to 11000 M⁻¹ s⁻¹. Besides, on wild type K-Ras, the “% covalent modification of wild type K-Ras” value was found to be 0%. Besides, the “labeling of K-Ras G13D” value on K-Ras(G13D) is listed as “not that of WT, G12E, G12S, or G13D”. Further, in data set [7], the “in-cell labeling of endogenous K-Ras” value is recorded as “only half of the two alleles”. Also, the “in-cell labeling of endogenous K-Ras(G12D)” value in [8] and in data set [9] was “labeled endogenous K-Ras(G12D) completely” each time. Moreover, the IC50 in the data set with BaF3/K-Ras(G12D) cells stood at 73 ± 17 nM. Besides, the “labeling of K-Ras G12E” value at K-Ras G12E [10] is reported as “not that of WT, G12E, G12S, or G13D”. The “% covalent modification of K-Ras G12E” value at K-Ras G12E [11] worked out at 0%.
